# Measured values from patent US6423307B1, “Bioadhesive complexes of polycarbophil and azole antifungal or antiprotozoal drugs” (Farmigea S.p.A., priority 1996, dated 2002).
# What was measured:
# [1] = system: Candida albicans, strain ATCC 48867; assay: Experimental intravaginal infection by Candida albicans in a murine model; format: in vivo, CBA/J (H-2^k) mice; conditions: for Not improved (% of mice): above 990 colonies; for Not improved (number of mice): vaginal wash 4 hours after dosing, above 990 colonies in 50 μl PBS; for Improved (% of mice) / Improved (number of mice): 100 to 990 colonies in 50 μl PBS; for Cured (number of mice): all cultures negative; for Sensibly improved (% of mice) / Sensibly improved (number of mice): less than 100 colonies in 50 μl PBS
# Excerpt: In the frame of the microbiological experimentation of the products of the invention, the in vivo pharmacological activity of the econazole-polycarbophil complex has also been tested, in comparison with that of econazole (base), in the treatment of an experimental intravaginal infection by Candida albicans, reproduced in a murine model.
# Vaginal candidiasis in rodents may be induced only in pseudoestrus conditions (P. L. Fidel, M. E. Lynch, J. D. Sobel, Infection and Immunity, 61 (5), 1993, 1990). For this reason, 72 hours before vaginal inoculation, the CBA/J (H-2^k) mice, described as sensible to such infection (P. L. Fidel, J. L. Cutright, J. D. Sobel, Infection and Immunity, 63 (10), 1995, 4191) were treated with 0.5 mg of estradiol valerate, dissolved in sesame oil, administered by subcutaneous route. The estrogen administration was repeated weekly until completion of the study. Blastoconoids (5×10^5) of Candida albicans, strain ATCC 48867, were inoculated in the vagina of mice previously treated with estrogens. After one week from the inoculation, the infection degree was evaluated by means of vaginal washing and subsequent count of the colony-forming units (CFU) on plates of Sabouraud agar, to which chloramphenicol and gentamicin had been added.
# The infected animals were divided into three test groups, each one of which underwent a therapeutic treatment for five subsequent days (from day 1 to day 5). Each therapeutic treatment respectively consisted of: 1) econazole (base) (0.5 wt. % and 1 wt. %); 2) econazole-polycarbophil complex (0.5 wt. % and 1 wt. % calculated as econazole); 3) excipients (control group).
# The infection degree was checked before starting the treatment and at the end thereof (day 6). […] The statistical evaluation of the results was made by means of the χ^2 test.
# [2] = system: C. albicans ATCC 48867; assay: Antifungal assay in solid medium (inhibition halo); format: cell-based, Candida albicans
# Procedure: (§1) Two standard American Type Culture Collection (ATCC) strains were used for the assays, i.e. those deposited under the numbers ATCC 48867 and ATCC 23866. Econazole (base) and the econazole-polycarbophil complex were prepared by using different concentrations of the active ingredient depending on the assay requirements, as well as different solvents (i.e. propylene glycol, DMSO), with or without a thickening excipient substance (i.e. hydroxypropylcellulose). The activity of each solvent was also tested, as well as the activity of the excipient and that of polycarbophil alone.
# The antifungal activity has been evaluated in an assay in solid medium using Petri dishes containing Sabouraud medium with 2% agar. The dishes were uniformly seeded, with the aid of a sterile pad, with an aqueous suspension containing C. albicans at a density of 2 McFarland. By means of an instrument of 6 mm diameter, incisions were made on the dishes in order to obtain regular cavities in the agar thickness. Each one of the substances under test was placed in one of these cavities, in amounts ranging from 50 to 100 μl. The plates were then incubated for 24 h in a thermostat at 37° C. The antifungal activity was evaluated by measuring the diameter of the inhibition of C. albicans growth around each cavity.
# The antifungal assay in solid medium turned out to be a highly sensitive and reproducible assay also for the products under test. At least five separate experiments for evaluating the inhibition halos were carried our for each one of the two different strains and for each one of the compounds examined. Similar results were obtained with each compound in all of the experiments performed.
# [3] = system: C. albicans ATCC 23866; assay: Susceptibility test in microplate (liquid medium), MIC; format: cell-based, Candida albicans; conditions: 48 h at 37° C.
# Procedure: as §1
# (§2) Stock solutions of econazole (base) and of the econazole-polycarbophil complex were obtained by dissolving the compounds in DMSO at a concentration of 1.5 mg/ml. Two serial 10-fold dilutions in DMSO were made starting from the stock solutions, up to a concentration of 15 μg/ml. From this concentration each compound was subsequently diluted in Yeast Nitrogen Base medium, to which 0.5% glucose and 0.05% bovine albumin had been added. The mixtures were then placed, at different concentrations, in microplate wells (90 μl volume each). 10 μl of a suspension of C. albicans obtained by diluting by {fraction (1/10+L )} a preparation having a turbidity of 2 McFarland were then inoculated in each well. […]
# [4] = system: C. albicans ATCC 48867; assay: as above; format: cell-based, Candida albicans; conditions: 48 h at 37° C.
# Procedure: as §1, §2
# [5] = 0.5 wt. % econazole, 5 days, checked day 6
smiles,measurement,setting,value
"Clc1ccc(COC(Cn2ccnc2)c2ccc(Cl)cc2Cl)cc1 (stereo not shown) [econazole (base), 1-{2-[(4-chlorophenyl)methoxy]-2-(2,4-dichlorophenyl)ethyl}-1H-imidazole]",Not improved (% of mice),[1]; [5],11.11%
same,Not improved (number of mice),[1]; [5],1
same,Improved (% of mice),[1]; 0.5 wt. % econazole,66.66%
same,Improved (number of mice),[1]; 0.5 wt. % econazole,6
same,Cured (number of mice),[1]; 0.5 wt. % econazole,0
same,Sensibly improved (% of mice),[1]; 0.5 wt. % econazole,22.22%
same,Sensibly improved (number of mice),[1]; 0.5 wt. % econazole,2
same,Not improved (number of mice),"[1]; 1 wt. % econazole, 5 days, checked day 6",3
same,Improved (% of mice),[1]; 1 wt. % econazole,56.25%
same,Improved (number of mice),[1]; 1 wt. % econazole,9
same,Not improved (% of mice),[1]; 1 wt. % econazole,18.75%
same,Cured (number of mice),[1]; 1 wt. % econazole,0
same,Sensibly improved (% of mice),[1]; 1 wt. % econazole,25.00%
same,Sensibly improved (number of mice),[1]; 1 wt. % econazole,4
same,cured animals added to sensibly cured animals (% of mice),"[1]; 1 wt. % econazole, p=0.0131 between groups",25%
same,Diameter of inhibition halo,"[2]; Concentration 3 × 10^−2 %, preparation with HPC",31.2 ± 0.84 mm
same,Diameter of inhibition halo,"[2]; Concentration 3 × 10^−2 %, preparation without HPC",31.2 ± 0.84 mm
same,Diameter of inhibition halo,"[2]; Concentration 3 × 10^−3 %, preparation with HPC",29.4 ± 0.89 mm
same,Diameter of inhibition halo,"[2]; Concentration 3 × 10^−3 %, preparation without HPC",28.6 ± 0.55 mm
same,Diameter of inhibition halo,"[2]; Concentration 3 × 10^−4 %, preparation with HPC",20.8 ± 1.30 mm
same,Diameter of inhibition halo,"[2]; Concentration 3 × 10^−4 %, preparation without HPC",20.2 ± 1.09 mm
same,Diameter of inhibition halo,"[2]; Concentration 3 × 10^−5 %, preparation with HPC",13.0 ± 1.00 mm
same,Diameter of inhibition halo,"[2]; Concentration 3 × 10^−5 %, preparation without HPC",12.4 ± 0.58 mm
same,Minimal inhibitory concentration,[3],5.6 ± 0.4 μg/ml of econazole
same,Minimal inhibitory concentration,[4],5.6 ± 0.3 μg/ml of econazole
